Values of other authors as cited in patent publication US20210322464A1 (priority 2020, published 2021).

Details: 1000 μg per day, constant syringe pump infusion for 14 days; cited from earlier work

In the case of O=[Se](O)O [sodium selenite], the adverse effects is given as “No adverse effects”.
